Results: patent US20240376433A1, “STEM CELL INDUCTION INTO PRECHONDROCYTES AND DIFFERENTIATION INTO CHONDROCYTES BY CIPROFLOXACIN” (SMART CELL LAB CO., LTD., priority 2021, published 2024)

Columns and labels:
[1] = test system: stem cells; assay: Induction of differentiation of stem cells into chondrocytes (3D), Alcian blue staining; type: cell-based; conditions: 3D culture, 0.1 to 6 μM ciprofloxacin, 16 days
Procedure: Stem cells (collected from tissue donated by a hospital for non-profit patient treatment) were cultured by attaching 80% or more of the stem cells to a Dulbecco's modified Eagle's medium (DMEM) or a-MEM containing 1 to 10% FBS. Thereafter, the cells were collected and counted using Trypsin-EDTA, and 5×10^5 cells were inoculated into a 15 ml conical tube. A medium containing 0.1 to 6 μM ciprofloxacin was centrifuged to settle the cells at 150 g using a centrifuge (Hanil Science Co., Ltd., Combi415). The cells were cultured in a 5% CO2 incubator at 37° C. while exchanging the medium every 2 to 3 days. The stem cells induced to differentiate for 16 days were washed with DPBS and fixed with 4% paraformaldehyde for 1 hour. The completely fixed cells were stained using an Alcian blue solution (Merck, B8438) for 1 hour to 24 hours. Thereafter, the cells were washed once with 1 N HCl, and then further washed three times with sterile distilled water. Finally, the washed sample was observed.

[2] = test system: stem cells; conditions: stem cells cultured in medium with ciprofloxacin
Procedure: Stem cells (collected from tissue donated by a hospital for non-profit patient treatment) were cultured by attaching 80% or more of the stem cells to a Dulbecco's modified Eagle's medium (DMEM) or a-MEM containing 1 to 10% FBS.
Thereafter, the cells were collected using Trypsin-EDTA, counted, seeded at 1×10^3 cells/well in a 96-well plate, and attached to the plate for 24 hours. Thereafter, ciprofloxacin (Samsung Pharmaceutical, ciprofloxacin injection) was administered according to the concentration, and then cytotoxicity was confirmed for a specific time (up to 166 hours). Next, each well was treated with Cell Counting Kit-8 (hereinafter referred to as CCK, DOJINDO, Cat. No. CK04-13) at 10 μl/well, and then cultured at 37° C. in a 5% CO2 incubator for 1 hour.
The absorbance was measured using an absorbance meter (Bio-Tek, Epoch2) and quantitatively calculated.

[3] = test system: stem cells; assay: Induction of differentiation of stem cells into chondrocytes (2D), Alcian blue staining; type: cell-based; conditions: 2D culture, induced to differentiate for 16 days
Procedure: Stem cells (collected from tissue donated by a hospital for non-profit patient treatment) were cultured by attaching 80% or more of the stem cells to a Dulbecco's modified Eagle's medium (DMEM) or a-MEM containing 1 to 10% FBS. Thereafter, the cells were collected using Trypsin-EDTA, counted, seeded at 1×10^3 cells/well in a 96-well plate, and attached to the plate for 24 hours. […] Thereafter, the stem cells induced to differentiate for 16 days were washed with DPBS and fixed with 4% paraformaldehyde for 1 hour. The completely fixed cells were stained using an Alcian blue solution (Merck, B8438) for 1 hour to 1 day. Thereafter, the cells were washed once with 1 N HCl, and then further washed three times with sterile distilled water. Finally, the washed sample was observed under a microscope.

SMILES: O=C(O)c1cn(C2CC2)c2cc(N3CCNCC3)c(F)cc2c1=O [ciprofloxacin]
- differentiation into chondrocytes, Alcian blue staining (3D) [1]: Alcian blue staining, which appears depending on SOX9, was present throughout the chondrocytes
- cell viability compared to a control (CONT) [2]: a significant difference in cell viability was not exhibited
- differentiation into chondrocytes, Alcian blue staining (2D) [3]: Alcian blue staining, which appears depending on SOX9, was present throughout the chondrocytes
